From patent US20240423215A1, “COMPOSITION FOR COATING PLANT SEED” (priority 2022, published 2024)

Columns and labels:
Assay type in all cases: in vivo
[1] = test system: Zea mays; assay: Cultivation of Zea mays from coated seeds under non-stress conditions (Example 1); details: 3 weeks after seeding
Protocol: Dent corn seeds (100 g; the variety: Snow-dent “Otoha”) were coated with 800 μl of a coating solution containing tryptophan, oxidized glutathione, polyvinyl alcohol, and a coloring dye in water using a coater (SATEC). Coating was performed using either or both of tryptophan in an amount of 0 g, 0.045 g, 0.1225 g, 0.45 g, 5 g, or 50 g and oxidized glutathione in an amount of 0 g, 3 g, 15 g, 150 g, or 300 g per ton of seeds.
Culture soil was filled into 12-cm vinyl pots, and the coated dent corn seeds were seeded at 4 grains/pot. After germination, a differently grown strain was thinned to retain 3 strains in a pot. Cultivation was performed in a glass greenhouse, and inspection was performed 21 days after seeding. The height and the fresh weight of the aboveground part were measured, and the density (the fresh weight of the aboveground part/the height) was determined. The test was repeated 6 times, and the average was determined.
(§1) The measured fresh weight of the aboveground part of plants in groups each treated with different amounts of tryptophan and oxidized glutathione was indicated as the rate of change (%), relative to the fresh weight of the aboveground part of plants in the test group (control group) treated with a coating solution not containing tryptophan or oxidized glutathione. […]

[2] = test system: rice; assay: Cultivation of rice from coated seeds under non-stress conditions (Example 7); details: 3 weeks after seeding
Protocol: Rice seeds (100 g; the variety: Emimaru) were coated with 800 μl of a coating solution containing tryptophan, oxidized glutathione, polyvinyl alcohol, and a coloring dye in water using a coater (SATEC). Coating was performed using either or both of tryptophan in an amount of 0 g, 2.25 g, or 5 g and oxidized glutathione in an amount of 0 g or 75 g per ton of seeds.
Culture soil was filled into 12-cm vinyl pots, and the coated rice seeds were seeded at 5 grains/pot. Cultivation was performed in a glass greenhouse, and the fresh weight of the aboveground part was inspected 21 days after seeding. The test was repeated 6 times, and the average was determined.
(§2) The measured fresh weight of the aboveground part of plants in groups each treated with different amounts of tryptophan and oxidized glutathione was indicated as the rate of change (%), relative to the fresh weight of the aboveground part of plants in the test group (control group) treated with a coating solution not containing tryptophan or oxidized glutathione.

[3] = test system: wheat; assay: Cultivation of wheat from coated seeds under salt stress conditions (Example 4); details: fresh weight of aboveground part
Protocol: Wheat seeds (100 g; the variety: Yumechikara) were coated with 800 μl of a coating solution containing tryptophan, oxidized glutathione, polyvinyl alcohol, and a coloring dye in water using a coater (SATEC). Coating was performed using either or both of tryptophan in an amount of 0 g, 0.225 g, 2.25 g, 5 g, 10 g, or 50 g and oxidized glutathione in an amount of 0 g, 15 g, or 300 g per ton of seeds.
(§3) Culture soil containing sodium chloride at 4.0 g/l of the soil was filled into 7.5-cm pots, and the coated wheat seeds were seeded at 1 grain/pot. Cultivation was performed in a glass greenhouse, and inspection was performed 16 days after seeding. The height and the fresh weight of the aboveground part were measured, and the density (the fresh weight of the aboveground part/the height) was determined. The test was repeated 9 times, and the average was determined.
as §1

[4] = test system: Zea mays; assay: Cultivation of Zea mays from seeds coated with tryptophan and reduced glutathione under non-stress conditions (Comparative Example 1); details: 3 weeks after seeding, Trp 0.225 g and/or GSH 1-75 g per MT-seeds, FIG. 14
Protocol: Dent corn seeds (100 g; the variety: Snow-dent “Otoha”) were coated with 800 μl of a coating solution containing 0.225 g of tryptophan per ton of seeds (i.e., MT-seeds), 0, 1, 5, 15, or 75 g of reduced glutathione per MT-seeds, polyvinyl alcohol, and a coloring dye in water using a coater (SATEC).
Culture soil was filled into 12-cm vinyl pots, and the coated dent corn seeds were seeded at 4 grains/pot. After germination, a differently grown strain was thinned to retain 3 strains in a pot. Cultivation was performed in a glass greenhouse, and inspection was performed 21 days after seeding. The fresh weight of the aboveground part was measured. The test was repeated 6 times, and the average was determined.

[5] = test system: Zea mays; assay: Field test of Zea mays, ear yield (Example 8); details: 0.25 g tryptophan and/or 75 g GSSG per ton of seeds
Protocol: As a control group, seeds without coating were prepared.
• Location: the Wilderen MAR field, the Kingdom of Belgium • Variety: Like IT • Date of seeding: Apr.
Cultivation was performed in accordance with the conventional fertilization management technique and pest management technique, and the yield was inspected. • Inspection of yield: 120 strains/group; the number of repetition: 4

[6] = test system: wheat; assay: Cultivation of wheat from coated seeds under non-stress conditions (Example 3); details: 2 weeks after seeding, fresh weight of aboveground part
Protocol: Wheat seeds (100 g, Quintus) were coated with 800 μl of a coating solution containing tryptophan, oxidized glutathione, polyvinyl alcohol, and a coloring dye in water using a coater (SATEC). Coating was performed using either or both of tryptophan in an amount of 0 g, 0.01 g, 0.25 g, 5 g, or 10 g and oxidized glutathione in an amount of 0 g, 6 g, or 300 g per ton of seeds.
Culture soil was filled into a 96-well cell tray, the coated wheat seeds were seeded at 1 grain/cell, and inspection was performed 2 weeks after seeding. The height and the fresh weight of the aboveground part were measured, and the density (the fresh weight of the aboveground part/the height) was determined. Groups each consisting of 6 plants were subjected to the test, and the test was repeated 4 times.
as §2
The density (the fresh weight of the aboveground part/the height) of the test groups was indicated as the rate of change (%), relative to the density of the control group.

[7] = test system: soybean; assay: Cultivation of soybean from coated seeds under salt stress conditions (Example 6); details: 3 weeks after seeding, fresh weight of aboveground part
Protocol: Soybean seeds (100 g; the variety: Fukuyutaka) were coated with 800 μl of a coating solution containing tryptophan, oxidized glutathione, polyvinyl alcohol, and a coloring dye in water using a coater (SATEC). Coating was performed using either or both of tryptophan in an amount of 0 g, 0.045 g, 0.225 g, 0.45 g, or 5 g and oxidized glutathione in an amount of 0 g, 15 g, or 75 g per ton of seeds.
as §3, with “1.0” for “4.0”, “soybean” for “wheat”, “21” for “16”, “The” for “The height and the”, “part,” for “part were measured, and”, “height), and the dry weight of the underground part were measured.” for “height) was determined.”
as §1

[8] = test system: Zea mays; assay: Cultivation of Zea mays from coated seeds under salt stress conditions (Example 2); details: 3 weeks after seeding, fresh weight of aboveground part
Protocol: Dent corn seeds (100 g; the variety: Snow-dent “Otoha”) were coated with 800 μl of a coating solution containing tryptophan, oxidized glutathione, polyvinyl alcohol, and a coloring dye in water using a coater (SATEC). Coating was performed using either or both of tryptophan in an amount of 0 g, 0.009 g, 0.045 g, 0.1225 g, 0.225 g, 0.45 g, or 5 g and oxidized glutathione in an amount of 0 g, 15 g, or 75 g per ton of seeds.
Culture soil containing sodium chloride at 6.0 g/l of the soil was filled into 7.5-cm pots, and the coated dent corn seeds were seeded at 1 grain/pot. Cultivation was performed in a glass greenhouse, and inspection was performed 21 days after seeding. The height, the fresh weight of the aboveground part, and the number of leaves were measured, and the density (the fresh weight of the aboveground part/the height) was determined. The test was repeated 9 times, and the average was determined.
The rates of changes (%) in the height, the number of leaves, the fresh weight of the aboveground part, and the density (the fresh weight of the aboveground part/the height) measured or determined for the test groups, relative to those of the control group were determined.

[9] = test system: wheat; assay: Cultivation of wheat from coated seeds under low-temperature stress conditions (Example 9); details: 6 weeks after seeding
Protocol: Wheat seeds (100 g; the variety: Yumechikara) were coated with 800 μl of a coating solution containing tryptophan, oxidized glutathione, polyvinyl alcohol, and a coloring dye in water using a coater (SATEC). Coating was performed using either or both of 5 g of tryptophan per MT-seeds and 75 g of oxidized glutathione per MT-seeds. Culture soil was filled into 7.5-cm pots, and the coated wheat seeds were seeded at 1 grain/pot. Cultivation was performed in a glass greenhouse before germination, the germinated plants were transferred to and cultivated in an artificial climate chamber with a diurnal period of 12 hours set at 10° C. and a nocturnal period of 12 hours set at 5° C., and inspection was performed 6 weeks after seeding. The dry weight of the aboveground part and the dry weight of the underground part were measured. The test was repeated 8 times, and the average was determined.
In the table, “%” indicates a value calculated relative to the weight without treatment, which is designated as 100%. […] With the use of glutathione in combination with tryptophan, in addition, the dry weight of the aboveground part was increased by 17% and the dry weight of the underground part was increased by 24%, relative to the control group. Such increase was significant. […] As described above, use of glutathione in combination with tryptophan would exert effects of promoting the healthy growth under low-temperature stress conditions.

[10] = test system: Zea mays; assay: Cultivation of Zea mays from seeds coated with tryptophan and reduced glutathione under salt stress conditions (Comparative Example 2); details: salt stress (NaCl 6.0 g/l soil); 3 weeks after seeding; Trp 0.225 g and/or GSH 1-75 g per MT-seeds; FIG. 15
Protocol: Dent corn seeds (100 g; the variety: Snow-dent “Otoha”) were coated with 800 μl of a coating solution containing 0.225 g of tryptophan per MT-seeds, 0, 1, 5, 15, or 75 g of reduced glutathione per MT-seeds, polyvinyl alcohol, and a coloring dye in water using a coater (SATEC).
Culture soil containing sodium chloride at 6.0 g/l of the soil was filled into 7.5-cm pots, and the coated dent corn seeds were seeded at 1 grain/pot. Cultivation was performed in a glass greenhouse, and inspection was performed 21 days after seeding. The fresh weight of the aboveground part was measured. The test was repeated 9 times, and the average was determined.
The fresh weight of the aboveground part measured for the test groups treated with different amounts of tryptophan and reduced glutathione was indicated as the rate of change (%), relative to that of the test group (the control group) treated with a coating solution not containing tryptophan or reduced glutathione.

[11] = low-temperature stress (10° C./5° C.), Trp 5 g and/or GSSG 75 g per MT-seeds
[12] = low-temperature stress, Trp 5 g and/or GSSG 75 g per MT-seeds

N[C@@H](Cc1c[nH]c2ccccc12)C(=O)O [tryptophan, L-tryptophan]
increase in the fresh weight of the aboveground part compared with no treatment ([1]; either or both of 0.1225 g tryptophan and 150 g GSSG per ton of seeds): 3% | effects of promoting the initial growth ([1]; fresh weight of aboveground part): No effects of promoting the initial growth were attained | effects of promoting the initial growth [2]: Effects of promoting the initial growth were attained to some extent | effects of promoting the initial growth [3]: No effects of promoting the initial growth were attained | rate of change in the fresh weight of the aboveground part relative to control group [4]: 4% | ear yield relative to the control group without coating (100%) ([5]; FIG. 16): 100.4% | increase in the ear yield ([5]; relative to control group): An increase was not observed in the yield | effects of promoting the initial growth [6]: No effects of promoting the initial growth were attained | effects of promoting the initial growth [7]: No effects of promoting the initial growth were attained | effects of promoting the initial growth [8]: No effects of promoting the initial growth were attained | Dry weight of aboveground part [9, 11]: 0.24 g | Dry weight of underground part [9, 11]: 0.08 g | effects of promoting the initial growth ([9]; low-temperature stress): not observed | Dry weight of aboveground part, relative to without treatment (100%) [9, 12]: 97% | Dry weight of underground part, relative to without treatment (100%) [9, 12]: 101% | rate of change in the fresh weight of the aboveground part relative to control group [10]: 1%
